Data: the supplement of paper PMC10307832

How the values were obtained:
Test in all cases: relative viability (nuclei count vs DMSO), 5 days (fraction); higher = more cells survive
[1] = compound: COc1cc2c(Oc3ccc4[nH]c(C)cc4c3F)ncnc2cc1OCCCN1CCCC1 [Cediranib] + CC(C)C[C@H](NC(=O)[C@H](Cc1ccccc1)NC(=O)c1cnccn1)B(O)O [Bortezomib] (partner 0.002 µM)
Method in brief: (§1)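 Lung cancer cell lines, seeded in 1536-well plates, were treated the following day by pin tool with a single drug or with five library-drug doses (not always all listed) in √10 steps on top of a fixed anchor-drug dose. Cells were fixed and nuclei stained in one step after 5 days, and nuclei were counted. Relative viability is the nuclei count for treated wells divided by that for vehicle wells, reported as medians of duplicate plates.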

[2] = compound: COc1cc2c(Oc3ccc4[nH]c(C)cc4c3F)ncnc2cc1OCCCN1CCCC1 [Cediranib] + NC(=O)Nc1cc(-c2cccc(F)c2)sc1C(=O)N[C@H]1CCCNC1 [AZD7762] (partner 0.2 µM)
Method in brief: as §1

[3] = compound: Nc1ncn([C@H]2C[C@H](O)[C@@H](CO)O2)c(=O)n1 [Decitabine] + C[C@]1(O)C[C@@H](c2nc(-c3ccc4ccc(-c5ccccc5)nc4c3)c3c(N)nccn32)C1 [Linsitinib] (partner 1 µM)
Method in brief: as §1

[4] = compound: O=C(C[C@H]1NCCC[C@@H]1O)Cn1cnc2cc(Br)c(Cl)cc2c1=O (racemic) [Halofuginone] + CCNC(=O)c1noc(-c2cc(C(C)C)c(O)cc2O)c1-c1ccc(CN2CCOCC2)cc1 [Luminespib] (partner 0.01 µM)
Method in brief: as §1

Cell Line	relative viability ([1]; first compound 0.04 µM)	relative viability ([1]; first compound 0.1265 µM)	relative viability ([1]; first compound 0.4 µM)	relative viability ([1]; first compound 1.265 µM)	relative viability ([1]; first compound 4 µM)	relative viability ([2]; first compound 0.04 µM)	relative viability ([2]; first compound 0.1265 µM)	relative viability ([2]; first compound 0.4 µM)	relative viability ([2]; first compound 1.265 µM)	relative viability ([2]; first compound 4 µM)	relative viability ([3]; first compound 0.04 µM)	relative viability ([3]; first compound 0.1265 µM)	relative viability ([3]; first compound 0.4 µM)	relative viability ([3]; first compound 1.265 µM)	relative viability ([3]; first compound 4 µM)	relative viability ([4]; first compound 0.001 µM)	relative viability ([4]; first compound 0.003162 µM)	relative viability ([4]; first compound 0.01 µM)	relative viability ([4]; first compound 0.03162 µM)	relative viability ([4]; first compound 0.1 µM)
201T	1.16	1.19	1.09	1.05	1.09	0.705	0.445	0.607	0.521	0.618	1.06	1.16	1.3	1.1	0.924	1.06	1.04	1.03	1.08	0.866
A549	–	–	–	–	–	–	–	–	–	–	0.535	0.731	0.554	0.299	0.151	–	–	–	–	–
A-427	0.998	–	0.972	0.925	1.01	0.816	–	0.685	0.659	0.707	0.807	0.674	0.446	0.368	0.275	1.08	0.934	0.913	0.818	0.733
ABC-1	0.33	0.272	0.307	–	0.305	0.635	0.729	0.813	0.905	0.723	0.705	0.677	0.639	0.611	0.523	–	0.793	0.518	0.225	0.377
BEN	0.872	0.432	0.861	0.559	0.724	0.772	0.587	0.649	0.517	0.696	0.994	0.809	0.671	0.46	0.43	0.203	0.348	0.45	0.322	0.14
CAL-12T	0.88	–	0.931	1.07	1.12	0.668	0.638	0.633	0.603	0.669	0.657	0.805	0.494	0.451	0.347	0.73	0.548	0.489	0.423	0.14
COR-L23	0.944	1.05	0.867	0.969	1.18	–	–	–	–	–	0.647	0.482	0.374	0.272	0.19	0.819	0.636	0.699	0.368	0.211
COR-L 105	–	0.666	0.715	0.722	0.828	–	–	–	–	–	1.02	0.768	0.738	0.506	0.486	0.668	0.606	0.694	0.639	0.532
Calu-6	1.03	0.977	1.05	0.968	1.03	–	–	–	–	–	0.807	0.682	0.494	0.33	0.193	–	–	–	–	–
ChaGo-K-1	1.03	–	0.994	1.04	0.861	0.843	0.684	0.886	0.9	0.948	–	–	–	–	–	0.683	0.712	0.713	0.563	0.563
EBC-1	0.702	0.628	0.528	0.687	0.687	–	–	–	–	–	0.693	0.704	0.417	0.316	0.247	–	–	–	–	–
EKVX	1.12	0.892	0.975	0.939	0.865	0.731	0.609	0.636	–	0.798	0.792	0.854	0.657	0.386	0.306	0.868	0.818	0.891	0.871	0.937
EMC-BAC-2	1.06	0.69	1.03	1.02	1.07	1.06	0.952	1.11	1.07	1.15	0.797	0.81	0.652	0.612	0.583	1.13	1.14	1.17	0.896	0.649
EPLC-272H	0.997	–	0.923	0.794	0.949	0.2	–	0.272	0.175	0.259	0.811	0.939	–	0.596	0.548	0.329	0.169	0.409	0.479	0.206
H3255	0.808	0.842	0.776	0.731	0.814	0.889	0.811	0.924	0.824	0.886	0.488	0.88	0.551	0.554	0.468	0.807	0.742	0.974	0.908	0.924
HARA	1.18	1.01	1.11	1.14	1.07	0.35	0.279	0.234	0.267	0.251	0.896	0.776	0.69	0.382	0.312	0.311	0.786	0.635	0.679	0.429
HCC-15	1.06	–	1	1.12	1.01	1.39	–	1.18	1.35	1.11	0.777	0.772	0.562	0.51	0.434	0.307	0.311	0.653	0.453	0.317
HCC-44	0.825	–	0.873	0.932	0.975	1.09	0.843	1	0.941	1.04	0.686	0.644	0.495	0.292	0.351	1.09	1.15	1	1	0.155
HCC-78	0.51	0.576	0.504	0.533	0.601	0.719	1.01	0.659	0.532	0.645	0.538	0.545	0.407	0.371	0.319	–	–	–	–	–
